Patent publication US20260363239A1, “COMPOSITIONS TO CONTROL LEVEL OF UNDESIRABLE MATERIALS” (Solugen, Inc., priority 2022, published 2026)
Converted amounts (≈) assume the structure as drawn.

Assays:
E. Coli = test: Minimum inhibitory concentration (MIC) against E. coli; assay type: cell-based; details: Escherichia coli
Procedure: (§1) A minimum inhibitory concentration (MIC) of a MUM was determined and compared to that of the biocide glutaraldehyde. Specifically, the indicated compound or blend of compounds was used to treat a wildtype E. coli strain and the effect of this treatment on bacterial count used to determine the MIC.
(§2) However, the mixture of the glyoxal and glycolaldehyde (1,4 dioxane 2,5 diol) provided competitive performance to glutaraldehyde.

[1] = tested on: general wild strain bacteria; test: Minimum inhibitory concentration (MIC) against general wild strain bacteria; assay type: cell-based
Procedure: as §1, §2

Row | Structure (SMILES) | MIC (E. Coli) | MIC [1]
1 | OC1COC(O)CO1 (stereo not drawn) [39% 1,4 dioxane 2,5 diol, 1,4 dioxane 2,5 diol] | 1000 µg/mL (≈ 8.33 mM) | > 1000 µg/mL
2 | O=CCCCC=O [40% glutaraldehyde, glutaraldehyde] | 1000 µg/mL (≈ 9.99 mM) | 1000 µg/mL (≈ 9.99 mM)
3 | O=CC=O [39% glyoxal, glyoxal] | 1000 µg/mL (≈ 17.2 mM) | > 1000 µg/mL
